# Measured values reported in US20110151474A1, “METHOD OF ESTIMATING THE RISK OF EXPRESSION OF ADVERSE DRUG REACTION CAUSED BY THE ADMINISTRATION OF A COMPOUND, WHICH IS EITHER METABOLIZED PER SE BY UGT1A1 ENZYME OR WHOSE METABOLIC INTERMEDIATE IS METABOLIZED BY THE ENZYME” (DAIICHI PURE CHEMICALS CO ., LTD, priority 2000, published 2011).
# Experiments:
# [1] = out of 1245 patients during period of clinical trials; cited from earlier work
# [2] = Retrospective review of adverse drug reaction (leukopenia, diarrhea, severe toxicity) in patients given irinotecan chemotherapy, correlated with UGT1A1 genotype; assay type: in vivo, Japanese patients; details: for odds ratio of severe toxicity: logistic regression
# Text: The subjects were Japanese patients who had received irinotecan administration in their chemotherapies from July 1994 to June 1999. For confirming the security of the patients, each patient was primarily ensured to have an adequate bone marrow function before the use of irinotecan: a leukocyte count of 3×10^9/liter or more, and a platelet count of 100×10^9/Iiter or more. In addition, the patients who had evidence of watery diarrhea, paralytic ileus, pulmonary interstitial pneumonia or fibrosis, massive ascites or pleural effusion, apparent jaundice, or anamnesis of hypersensitivity to irinotecan were excluded from the irinotecan use. As a result, 118 patients were used as a subject of this Example.
# For confirming the adaptability to irinotecan, the complete blood count, platelet count and serum chemistry were assessed at least once a week. And bilirubin levels were always measured.
# We retrospectively reviewed the clinical records including patients' characteristics (e.g. age, gender and the like), the dosage and schedule of irinotecan administration, the record of use of other drugs or radiotherapy, and observed adverse drug reaction caused by irinotecan (infusion). We counted the number of days when the patients received granulocyte colony stimulating factors (G-CSFs) or loperamide hydrochloride, the latter of which is commonly prescribed for irinotecan-induced diarrhea in Japan. Prophylactic administration of G-CSF prevented the apparent onset of neutropenia. Since the dose limiting toxicity of irinotecan is known to result in leukopenia and diarrhea, we defined as “severe toxicity” as leukopenia of grade 4 (0.9×10^9/liter) and the diarrhea of grade 3 or worse (grade 3 is for the watery diarrhea for 5 days or more; grade 4, the diarrhea with hemorrhagic or dehydration as classified in accordance with the Japan Society for Cancer Therapy criteria). No other adverse drug reactions were included in this example because they would be influenced by miscellaneous patients' backgrounds. The Serum total bilirubin levels were recorded with the scores just prior to irinotecan administration along with the highest of those after initiation of the therapy.
# Blood was sampled from each patient (118 samples) and their genotypes were analyzed after irinotecan administration in each patient. […]
# We analyzed the following variant sequences for each genomic DNA (see Fig. I): a two-extra-nucleotide (TA) insertion within the TATA box resulting in the sequence (TA)7TAA at positions −39 to −53, whose type is referred to as UGT1A1 *28; (Monaghan, G., Ryan, M., Seddon, R., Hume, R., and Burchell, B., Lancet, 347: 578-581, 1996, Bosma, P. J. et al., N. Engi. J. Med., 333: 1171-1175, 1995); a transition at codon 71 in exon I (from (G) to (A) at +211 locating in the downstream region from the initial site of the transcription) that changes glycine to arginine (represented by G71 R, whose type is referred to as UGT1A1*6); a transversion at codon 229 in exon I that alters proline to glutamine (represented by P229Q, whose type is referred to as UGT1A1*27); a trarisversion at codon 367 from (C) to (G) at position +1099 in exon 4 that converts arginine to glycine (represented by R367G, whose type is referred to as UGT1A1*29); and a transversion (+1456, T to G) at codon 486 in exon 5 that transforms tyrosine (Y) into aspartic acid (D) (represented by Y486D, whose type is referred to as UGTIA1*7). […]
structure (smiles),measurement,setting,value
CCc1c2c(nc3ccc(OC(=O)N4CCC(N5CCCCC5)CC4)cc13)-c1cc3c(c(=O)n1C2)COC(=O)[C@]3(O)CC [irinotecan],deaths attributed to adverse drug reactions,[1],55 patients
same,odds ratio of severe toxicity,"[2]; UGT1A1*6, 95% CI 0.15-1.61, P>0.2",0.55
same,patients who experienced severe toxicity,[2]; all patients heterozygous for UGT1A1*27,3 patients
same,odds ratio of severe toxicity,"[2]; genotype heterozygous or homozygous for UGT1A1*28, 95% CI 1.98-13.96, P<0.001",5.21
same,patients who experienced severe toxicity (leukopenia grade 4 and/or diarrhea grade 3 or worse),"[2]; of 118 patients given irinotecan, 92 did not",26 patients
same,increase of severe toxicity of irinotecan,"[2]; possession of UGT1A1*28, multiple logistic regression with gender and chemotherapy regimen (FIG. 5)",7 fold
